Marks after values point to notes of the source that are not given here.
Experiments:
[1] = tested on: Human Epidermoid Carcinoma KB-3-1; experiment: Growth of tumors in nude mice, KB-3-1 xenograft; type: in vivo; conditions: KB-3-1; vincristine 1 mg/kg IP, days 1,5,9
Protocol: (§1) 2.4. Growth of Tumors in Nude Mice.
In these experiments, xenografts are implanted subcutaneously into the flanks of nude mice. […] Relative tumor mass compared to controls are assessed during the 21-day post-staging period.
Groups of 5 female nu/nu mice are injected with 1.5×10^6 KB-3-1 (A) or Lox cells (B). […] Relative tumor growth is determined during the experiment and % T/C calculated. Statistical analyses are Student's t-test of treated time points vs. vehicle (*, P<0.05; **, P<0.01)

[2] = tested on: Human Melanoma Carcinoma Lox; conditions: Lox; vincristine 1 mg/kg IP, days 1,5,9
KB-8.5 tumor = experiment: Growth of tumors in nude mice, KB-8-5 xenograft; type: in vivo; conditions: vincristine 1 mg/kg IP, days 1,5,9
From the text: as §1

DLD-1 tumor = experiment: Growth of tumors in nude mice, DLD-1 xenograft; type: in vivo; conditions: vincristine 1 mg/kg IP, days 1,5,9
From the text: as §1

MX-1W tumor = experiment: Growth of tumors in nude mice, MX-1W xenograft; type: in vivo; conditions: MX-1W; vincristine 1 mg/kg IP, days 1,5,9
From the text: as §1

HCT-15 tumor = experiment: Growth of tumors in nude mice, HCT-15 xenograft; type: in vivo; conditions: vincristine 1 mg/kg IP, days 1,5,9
From the text: as §1

[3] = tested on: human carcinoma xenografts; experiment: Growth of tumors in nude mice, several xenograft models and tolerated dose; type: in vivo; conditions: DLD-1, MX-1W or HCT-15 tumors; at or near the MTD
From the text: as §1

CC[C@]1(O)C[C@H]2CN(CCc3c([nH]c4ccccc34)[C@@](C(=O)OC)(c3cc4c(cc3OC)N(C=O)[C@H]3[C@@](O)(C(=O)OC)[C@H](OC(C)=O)[C@]5(CC)C=CCN6CC[C@]43[C@@H]65)C2)C1 [vincristine] was tested, and the “% T/C on day 7” value [1] was 15** %, the “% T/C on day 14” value [1] was 12** % and the “% T/C on day 21” value [1] was 17** %. The “% T/C on day 7” value [2] was 13** %, the “% T/C on day 12” value [2] was 3** % and the “% T/C on day 6” value (KB-8.5 tumor) was 71%. For the same molecule, the “% T/C on day 14” value (KB-8.5 tumor) was 85%, the “% T/C on day 21” value (KB-8.5 tumor) was 81% and the “% T/C on day 7” value (DLD-1 tumor) was 113%. For the same molecule, the “% T/C on day 14” value (DLD-1 tumor) was 119%, the “% T/C on day 21” value (DLD-1 tumor) was 177% and the “% T/C on day 7” value (MX-1W tumor) was 65%. For the same molecule, the “% T/C on day 14” value (MX-1W tumor) was 61%, the “% T/C on day 9” value (HCT-15 tumor) was 91% and the “% T/C on day 13” value (HCT-15 tumor) was 81%. The “% T/C on day 17” value (HCT-15 tumor) was 95%, the “% T/C on day 21” value (HCT-15 tumor) was 107% and the response of tumors [3] was “no response”.

— patent publication US20040121965A1, “Method of treating resistant tumors” (Wyeth Holdings Corporation, priority 2002, published 2004)
